Data taken from PubChem BioAssay (NCI).
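These data come from cells grown in 96-well plates and exposed to compound for 48 hours at five concentrations. The concentration for 50% growth inhibition is given as GI50. TGI denotes the concentration required for complete inhibition of growth.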

What was measured:
Assay in all cases: DTP human tumour cell line panel, 48 h
A498 renal = test system: A498 renal
ACHN renal = test system: ACHN renal
HOP-92 NSCLC = test system: HOP-92 NSCLC
M14 melanoma = test system: M14 melanoma
NCI-H226 lung = test system: NCI-H226 lung
NCI-H23 lung = test system: NCI-H23 lung
OVCAR-8 ovarian = test system: OVCAR-8 ovarian
SF-295 CNS = test system: SF-295 CNS
SF-539 CNS = test system: SF-539 CNS
SNB-19 CNS = test system: SNB-19 CNS
SNB-75 CNS = test system: SNB-75 CNS
SR leukemia = test system: SR leukemia
SW-620 colon = test system: SW-620 colon
UO-31 renal = test system: UO-31 renal
BT-549 breast = test system: BT-549 breast
NCI/ADR-RES ovarian = test system: NCI/ADR-RES ovarian
T-47D breast = test system: T-47D breast

Row | Structure (SMILES) | TGI (A498 renal) [µM] | TGI (ACHN renal) [µM] | TGI (HOP-92 NSCLC) [µM] | TGI (M14 melanoma) [µM] | TGI (NCI-H226 lung) [µM] | TGI (NCI-H23 lung) [µM] | TGI (OVCAR-8 ovarian) [µM] | TGI (SF-295 CNS) [µM] | TGI (SF-539 CNS) [µM] | TGI (SNB-19 CNS) [µM] | TGI (SNB-75 CNS) [µM] | TGI (SR leukemia) [µM] | TGI (SW-620 colon) [µM] | TGI (UO-31 renal) [µM] | TGI (BT-549 breast) [µM] | TGI (NCI/ADR-RES ovarian) [µM] | TGI (T-47D breast) [µM] | GI50 (NCI-H226 lung) [µM] | GI50 (SF-295 CNS) [µM]
1 | COc1ccc2c(c1)c(=O)c1ccccc1n2/C=C/C(=O)O | > 100 | > 100 | > 100 | > 100 | > 100 | > 100 | > 100 | > 100 | > 100 | > 100 | > 100 | > 57.4 | > 100 | > 100 | – | – | – | – | –
2 | COc1c(Cl)c2c(c(OC)c1OC)-c1ccc(OC)c(=O)c(Cl)c1C(NC(C)=O)CC2 (stereo unspecified) | 0.413 | > 100 | 13.8 | 4.61 | 1.59 | – | – | 0.49 | 0.444 | > 100 | 1.1 | > 100 | > 100 | > 100 | – | – | – | – | –
3 | OC12c3ccccc3C1(N1CCOCC1)CCCCC21OCCCO1 (stereo unspecified) | > 100 | > 100 | – | > 100 | > 100 | > 100 | > 100 | > 100 | > 100 | > 100 | > 100 | – | – | – | – | – | – | – | –
4 | CSC1=C(C(=O)Nc2ccc(Cl)cc2)C(N)=NC1=O | > 100 | – | – | > 100 | > 100 | > 100 | > 100 | – | > 100 | > 100 | > 100 | > 100 | > 100 | > 100 | > 100 | > 100 | > 100 | – | –
5 | COc1cc(O)cc(/C=C/c2ccc(O)cc2)c1 | 94.3 | 31.2 | 91.9 | > 100 | 63.1 | 96.1 | > 100 | 84.3 | > 100 | > 100 | > 100 | > 100 | > 100 | > 100 | 39.6 | > 100 | > 100 | – | –
6 | C=CCCC(OCOCCOC)c1cc(C)c(O[Si](C)(C)C(C)(C)C)c(C)c1 (stereo unspecified) | 70.6 | 26.7 | – | > 100 | 26.4 | 31.5 | 39.8 | 31.8 | 38.6 | 20.7 | 35.6 | – | 33.2 | 23.9 | – | – | – | – | –
7 | COc1cccc(-c2cc(=O)c3cc(OC)c(OC)cc3[nH]2)c1 | – | > 100 | – | > 100 | 79.8 | > 100 | > 100 | > 100 | 77.3 | > 100 | > 100 | > 100 | > 100 | > 100 | – | – | – | 21.5 | 40.3
8 | O=S1(=O)OCCOS(=O)(=O)C1I | > 100 | – | > 100 | > 100 | > 100 | > 100 | > 100 | > 100 | > 100 | > 100 | > 100 | > 100 | > 100 | > 100 | – | – | – | – | –
9 | CCCCCCCC1(N=[N+]=[N-])C(=O)c2ccccc2N(C)C1=O (stereo unspecified) | > 100 | > 100 | 89.6 | > 100 | > 100 | > 100 | > 100 | > 100 | > 100 | > 100 | > 100 | > 100 | > 100 | – | > 100 | > 100 | > 100 | – | –
10 | O=C1/C(=C/C=C/c2ccccc2)N=C(c2ccccc2)N1C1Nc2cc3c(cc2S1)NC(N1C(=O)/C(=C/C=C/c2ccccc2)N=C1c1ccccc1)S3 (stereo unspecified) | > 100 | > 100 | 85.2 | > 100 | > 100 | > 100 | > 100 | > 100 | > 100 | – | – | 27.8 | > 100 | > 100 | – | > 100 | > 100 | – | –
11 | COC(=O)c1ccc(OCc2ccc3nc(OC)c(OC)nc3c2)cc1 | – | > 100 | – | > 100 | > 100 | > 100 | > 100 | > 100 | > 100 | > 100 | > 100 | > 100 | > 100 | > 100 | – | – | – | – | –
12 | N#Cc1c2ccc([N+](=O)[O-])cc2c(=O)n2c1sc1ccc(C(F)(F)F)cc12 | > 100 | > 100 | > 100 | > 100 | > 100 | > 100 | > 100 | > 100 | > 100 | > 100 | > 100 | – | > 100 | > 100 | > 100 | > 100 | > 100 | – | –
13 | O=C(O)/C=C/n1c2ccccc2c(=O)c2ccccc21 | > 100 | > 100 | – | > 100 | > 100 | > 100 | > 100 | > 100 | > 100 | > 100 | – | > 100 | > 100 | > 100 | – | – | – | – | –
